Laboratory results from ChEMBL document CHEMBL1697731, “Cheminformatics analysis of assertions mined from literature that describe drug-induced liver injury in different species” (Chem Res Toxicol, 2010).

Tests used:
[1] = system: Hepatotoxicity; assay: Literature-mined compound from Fourches et al multi-species drug-induced liver injury (DILI) dataset, effect in humans; settings: human
[2] = system: Hepatotoxicity; assay: Literature-mined compound from Fourches et al multi-species drug-induced liver injury (DILI) dataset, effect in non-rodents
[3] = system: Hepatotoxicity; assay: Literature-mined compound from Fourches et al multi-species drug-induced liver injury (DILI) dataset, effect in rodents; settings: rodentia

SMILES | Hepatotoxicity [1] | Hepatotoxicity [2] | Hepatotoxicity [3] | Hepatotoxicity ([1]; Liver) | Hepatotoxicity ([2]; Liver) | Hepatotoxicity ([3]; Liver)
CN[C@@H](C)[C@H](O)c1ccccc1 [EPHEDRINE] | drug-induced liver injury reported | no drug-induced liver injury reported | no drug-induced liver injury reported | – | – | –
Oc1cc(O)c2c(c1)O[C@H](c1ccc(O)c(O)c1)[C@@H](O)C2 [CATECHIN] | drug-induced liver injury reported | drug-induced liver injury reported | drug-induced liver injury reported | – | – | –
CCN(CC)CCNC(=O)c1cc(Cl)c(N)cc1OC [METOCLOPRAMIDE] | drug-induced liver injury reported | no drug-induced liver injury reported | drug-induced liver injury reported | – | – | –
CN(C)c1ccc(C(=C2C=CC(=[N+](C)C)C=C2)c2ccc(N(C)C)cc2)cc1.[Cl-] [GENTIAN VIOLET] | no drug-induced liver injury reported | no drug-induced liver injury reported | drug-induced liver injury reported | – | – | –
O=C(O)Cc1cc(I)c(Oc2ccc(O)c(I)c2)c(I)c1 [TIRATRICOL] | no drug-induced liver injury reported | no drug-induced liver injury reported | drug-induced liver injury reported | – | – | –
O=C(N[C@H](CO)[C@H](O)c1ccc([N+](=O)[O-])cc1)C(Cl)Cl [CHLORAMPHENICOL] | drug-induced liver injury reported | no drug-induced liver injury reported | drug-induced liver injury reported | – | – | –
Cc1cccc(C)c1NC(=O)c1cc(S(N)(=O)=O)c(Cl)cc1O [XIPAMIDE] | no drug-induced liver injury reported | no drug-induced liver injury reported | drug-induced liver injury reported | – | – | –
COc1ccc(OC)c(Cc2cnc3nc(N)nc(N)c3c2C)c1 [PIRITREXIM] | drug-induced liver injury reported | no drug-induced liver injury reported | no drug-induced liver injury reported | – | – | –
CC(C)N(CCC(C(N)=O)(c1ccccc1)c1ccccn1)C(C)C (stereo not drawn) [DISOPYRAMIDE] | drug-induced liver injury reported | no drug-induced liver injury reported | no drug-induced liver injury reported | – | – | –
CN(C)C(=O)C(CCN1CCC(O)(c2ccc(Cl)cc2)CC1)(c1ccccc1)c1ccccc1 [LOPERAMIDE] | no drug-induced liver injury reported | no drug-induced liver injury reported | drug-induced liver injury reported | – | – | –
COc1ccc(/C=C/C(=O)Nc2ccccc2C(=O)O)cc1OC | no drug-induced liver injury reported | no drug-induced liver injury reported | drug-induced liver injury reported | – | – | –
CC=CC1=C(C(=O)O)N2C(=O)[C@@H](NC(=O)[C@H](N)c3ccc(O)cc3)[C@H]2SC1 [CEFPROZIL] | drug-induced liver injury reported | no drug-induced liver injury reported | no drug-induced liver injury reported | – | – | –
CCN(CC)CC(=O)Nc1c(C)cccc1C [LIDOCAINE] | – | – | – | drug-induced liver injury reported | drug-induced liver injury reported | drug-induced liver injury reported
Nc1ccn([C@@H]2O[C@H](CO)[C@@H](O)[C@@H]2O)c(=O)n1 [CYTARABINE] | – | – | – | drug-induced liver injury reported | no drug-induced liver injury reported | drug-induced liver injury reported
COc1c(N2CCNC(C)C2)c(F)cc2c(=O)c(C(=O)O)cn(C3CC3)c12 (stereo not drawn) [GATIFLOXACIN] | drug-induced liver injury reported | no drug-induced liver injury reported | no drug-induced liver injury reported | – | – | –
O=c1[nH]cc(F)c(=O)[nH]1 [FLUOROURACIL] | drug-induced liver injury reported | drug-induced liver injury reported | drug-induced liver injury reported | – | – | –
CCOC(=O)CCC(=O)O[C@H]1[C@H](O[C@@H]2[C@@H](C)[C@H](O[C@H]3C[C@@](C)(OC)[C@@H](O)[C@H](C)O3)[C@@H](C)C(=O)O[C@H](CC)[C@@](C)(O)[C@H](O)[C@@H](C)C(=O)[C@H](C)C[C@@]2(C)O)O[C@H](C)C[C@@H]1N(C)C [ERYTHROMYCIN ETHYLSUCCINATE] | drug-induced liver injury reported | no drug-induced liver injury reported | no drug-induced liver injury reported | – | – | –
CN(C)CCC(c1ccc(Cl)cc1)c1ccccn1 (stereo not drawn) [CHLORPHENIRAMINE] | drug-induced liver injury reported | no drug-induced liver injury reported | no drug-induced liver injury reported | – | – | –
COc1ccc(C(=O)N2CCN(c3ccc4c(c3)CCC(=O)N4)CC2)cc1OC [VESNARINONE] | drug-induced liver injury reported | no drug-induced liver injury reported | drug-induced liver injury reported | – | – | –
CCCN(CCC)S(=O)(=O)c1ccc(C(=O)O)cc1 [PROBENECID] | drug-induced liver injury reported | no drug-induced liver injury reported | drug-induced liver injury reported | – | – | –
O=C(O)/C=C/c1ccc(Cn2ccnc2)cc1 [OZAGREL] | no drug-induced liver injury reported | no drug-induced liver injury reported | drug-induced liver injury reported | – | – | –
Cc1cc(C)c(/C=C2\C(=O)Nc3ccccc32)[nH]1 [SEMAXANIB] | drug-induced liver injury reported | no drug-induced liver injury reported | drug-induced liver injury reported | – | – | –
CC(C)c1nc(N(C)S(C)(=O)=O)nc(-c2ccc(F)cc2)c1/C=C/[C@@H](O)C[C@@H](O)CC(=O)O [ROSUVASTATIN] | no drug-induced liver injury reported | no drug-induced liver injury reported | drug-induced liver injury reported | – | – | –
Cc1ncc(CO)c(CO)c1O [PYRIDOXINE] | – | – | – | – | no drug-induced liver injury reported | drug-induced liver injury reported
C[C@]12CCC(=O)C=C1CC[C@@H]1[C@@H]2CC[C@@]2(C)[C@H]1CC[C@]2(C)O (stereo in doubt; form 2) [METHYLTESTOSTERONE] | drug-induced liver injury reported | – | – | – | – | –
NCC(=O)O [GLYCINE] | – | – | – | – | drug-induced liver injury reported | drug-induced liver injury reported
CC(=O)[C@H]1CC[C@H]2[C@@H]3CCC4=CC(=O)CC[C@]4(C)[C@H]3CC[C@]12C (stereo in doubt; form 2) [PROGESTERONE] | – | no drug-induced liver injury reported | no drug-induced liver injury reported | – | – | –
CCN(CC)CCOc1ccc(C(=C(Cl)c2ccccc2)c2ccccc2)cc1 (stereo in doubt; form 2) [CLOMIPHENE] | no drug-induced liver injury reported | – | drug-induced liver injury reported | – | – | –
